# From ChEMBL document CHEMBL2074181, “Interactions of glycyrrhizin with organic anion transporting polypeptides of rat and human liver” (Hepatol Res, 2003)
# Assays:
# [1] = target: T1, Solute carrier organic anion transporter family member 1B3 (Homo sapiens, UniProt Q9NPD5); test: TP_TRANSPORTER: inhibition of BSP uptake in Xenopus laevis oocytes; type: functional, cell-based, Oocyte
# T1 sequence (Q9NPD5 whole entry): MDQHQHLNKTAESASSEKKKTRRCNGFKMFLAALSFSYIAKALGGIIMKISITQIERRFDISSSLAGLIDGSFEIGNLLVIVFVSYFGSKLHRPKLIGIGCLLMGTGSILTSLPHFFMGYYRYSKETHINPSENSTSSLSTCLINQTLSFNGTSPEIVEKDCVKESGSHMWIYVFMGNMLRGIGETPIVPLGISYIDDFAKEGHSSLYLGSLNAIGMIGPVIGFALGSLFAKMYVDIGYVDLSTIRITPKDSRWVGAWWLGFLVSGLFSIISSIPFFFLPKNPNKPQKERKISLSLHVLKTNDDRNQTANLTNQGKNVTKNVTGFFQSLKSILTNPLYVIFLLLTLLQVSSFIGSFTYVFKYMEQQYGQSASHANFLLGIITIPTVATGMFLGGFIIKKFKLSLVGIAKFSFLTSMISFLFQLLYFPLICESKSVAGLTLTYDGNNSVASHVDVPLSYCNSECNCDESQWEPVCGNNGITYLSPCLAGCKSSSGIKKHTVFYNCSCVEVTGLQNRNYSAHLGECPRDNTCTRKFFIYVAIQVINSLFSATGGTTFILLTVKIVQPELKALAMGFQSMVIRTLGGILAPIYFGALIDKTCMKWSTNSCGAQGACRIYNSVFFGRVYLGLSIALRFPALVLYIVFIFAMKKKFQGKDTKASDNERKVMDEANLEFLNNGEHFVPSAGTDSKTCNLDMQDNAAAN
# [2] = target: T2, Solute carrier organic anion transporter family member 1A2 (Homo sapiens, UniProt P46721); test: TP_TRANSPORTER: inhibition of E1S uptake (E1S: 0.05 uM, GL: 100 uM) by Glycyrrhizic acid at a concentration of 100 u M in Xenopus laevis oocytes; type: functional, cell-based; conditions: oocyte
# T2 sequence (P46721 whole entry): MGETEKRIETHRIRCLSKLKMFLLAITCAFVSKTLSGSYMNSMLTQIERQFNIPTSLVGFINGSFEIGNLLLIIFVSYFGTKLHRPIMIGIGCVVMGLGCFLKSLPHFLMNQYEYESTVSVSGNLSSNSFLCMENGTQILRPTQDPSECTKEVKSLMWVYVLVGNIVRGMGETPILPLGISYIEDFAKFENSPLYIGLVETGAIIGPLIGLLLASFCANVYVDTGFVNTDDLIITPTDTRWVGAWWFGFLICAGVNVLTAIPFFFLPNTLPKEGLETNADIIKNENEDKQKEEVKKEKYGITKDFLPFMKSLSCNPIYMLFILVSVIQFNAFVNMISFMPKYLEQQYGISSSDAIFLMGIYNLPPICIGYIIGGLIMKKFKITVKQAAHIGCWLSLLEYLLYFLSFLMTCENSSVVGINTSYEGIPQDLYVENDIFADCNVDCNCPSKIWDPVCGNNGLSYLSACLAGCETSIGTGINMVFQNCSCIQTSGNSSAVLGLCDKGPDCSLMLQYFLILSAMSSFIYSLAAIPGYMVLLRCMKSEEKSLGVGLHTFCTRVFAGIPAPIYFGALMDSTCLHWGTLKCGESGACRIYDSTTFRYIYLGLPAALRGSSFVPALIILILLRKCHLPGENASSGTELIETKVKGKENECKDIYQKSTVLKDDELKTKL
# [3] = target: T3, Solute carrier organic anion transporter family member 1A1 (Rattus norvegicus, UniProt P46720); test: (§1) TP_TRANSPORTER: inhibition of E1S uptake (E1S: 0.05 uM, GL: 100 uM) in Xenopus laevis oocytes; type: functional, cell-based; parameters: scale not given: the % may be the effect or the level left; conditions: oocyte
# T3 sequence (P46720 whole entry): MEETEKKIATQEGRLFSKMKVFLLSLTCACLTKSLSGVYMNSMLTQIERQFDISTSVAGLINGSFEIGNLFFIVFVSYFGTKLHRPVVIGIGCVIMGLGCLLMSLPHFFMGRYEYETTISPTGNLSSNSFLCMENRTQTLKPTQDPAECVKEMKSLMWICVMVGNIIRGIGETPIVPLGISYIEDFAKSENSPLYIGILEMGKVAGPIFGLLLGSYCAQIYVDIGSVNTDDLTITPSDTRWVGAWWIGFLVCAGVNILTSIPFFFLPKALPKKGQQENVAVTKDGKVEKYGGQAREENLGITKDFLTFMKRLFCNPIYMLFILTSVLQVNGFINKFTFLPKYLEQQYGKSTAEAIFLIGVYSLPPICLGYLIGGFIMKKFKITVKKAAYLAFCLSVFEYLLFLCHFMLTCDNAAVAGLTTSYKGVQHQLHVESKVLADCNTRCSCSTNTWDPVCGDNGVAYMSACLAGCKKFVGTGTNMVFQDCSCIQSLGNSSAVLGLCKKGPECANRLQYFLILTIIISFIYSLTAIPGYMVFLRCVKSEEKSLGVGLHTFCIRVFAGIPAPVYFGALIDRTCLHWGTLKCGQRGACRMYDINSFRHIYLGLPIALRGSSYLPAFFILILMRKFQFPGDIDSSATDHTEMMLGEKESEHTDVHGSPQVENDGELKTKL
# [4] = target: T4, Solute carrier organic anion transporter family member 2B1 (Homo sapiens, UniProt O94956); test: TP_TRANSPORTER: inhibition of E1S uptake (E1S: 0.05 uM, GL: 100 uM) of Glycyrrhizic acid at a concentration of 100 u M in Xenopus laevis oocytes; type: functional, cell-based; conditions: oocyte
# T4 sequence (O94956 whole entry): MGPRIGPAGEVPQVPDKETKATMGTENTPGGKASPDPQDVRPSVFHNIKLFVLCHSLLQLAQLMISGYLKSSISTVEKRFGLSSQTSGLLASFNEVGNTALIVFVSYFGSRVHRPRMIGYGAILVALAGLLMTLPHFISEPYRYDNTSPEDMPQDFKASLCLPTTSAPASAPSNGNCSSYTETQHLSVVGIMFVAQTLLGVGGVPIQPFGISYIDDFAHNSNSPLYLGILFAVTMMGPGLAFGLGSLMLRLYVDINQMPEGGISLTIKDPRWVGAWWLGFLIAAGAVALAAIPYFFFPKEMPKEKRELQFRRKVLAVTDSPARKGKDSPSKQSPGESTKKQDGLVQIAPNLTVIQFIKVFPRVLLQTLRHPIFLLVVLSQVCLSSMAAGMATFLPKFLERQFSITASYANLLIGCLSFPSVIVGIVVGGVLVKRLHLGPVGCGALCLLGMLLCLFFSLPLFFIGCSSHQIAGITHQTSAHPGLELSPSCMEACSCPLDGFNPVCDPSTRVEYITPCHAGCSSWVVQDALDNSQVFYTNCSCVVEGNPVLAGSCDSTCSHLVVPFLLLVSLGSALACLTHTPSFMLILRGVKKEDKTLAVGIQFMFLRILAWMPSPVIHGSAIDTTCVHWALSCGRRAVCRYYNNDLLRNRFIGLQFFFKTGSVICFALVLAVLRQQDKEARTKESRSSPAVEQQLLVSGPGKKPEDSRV
# [5] = target: T5, Solute carrier organic anion transporter family member 1B1 (Homo sapiens, UniProt Q9Y6L6); test: (§2) TP_TRANSPORTER: inhibition of E1S uptake in Xenopus laevis oocytes; type: functional, cell-based, Oocyte
# T5 sequence (Q9Y6L6 whole entry): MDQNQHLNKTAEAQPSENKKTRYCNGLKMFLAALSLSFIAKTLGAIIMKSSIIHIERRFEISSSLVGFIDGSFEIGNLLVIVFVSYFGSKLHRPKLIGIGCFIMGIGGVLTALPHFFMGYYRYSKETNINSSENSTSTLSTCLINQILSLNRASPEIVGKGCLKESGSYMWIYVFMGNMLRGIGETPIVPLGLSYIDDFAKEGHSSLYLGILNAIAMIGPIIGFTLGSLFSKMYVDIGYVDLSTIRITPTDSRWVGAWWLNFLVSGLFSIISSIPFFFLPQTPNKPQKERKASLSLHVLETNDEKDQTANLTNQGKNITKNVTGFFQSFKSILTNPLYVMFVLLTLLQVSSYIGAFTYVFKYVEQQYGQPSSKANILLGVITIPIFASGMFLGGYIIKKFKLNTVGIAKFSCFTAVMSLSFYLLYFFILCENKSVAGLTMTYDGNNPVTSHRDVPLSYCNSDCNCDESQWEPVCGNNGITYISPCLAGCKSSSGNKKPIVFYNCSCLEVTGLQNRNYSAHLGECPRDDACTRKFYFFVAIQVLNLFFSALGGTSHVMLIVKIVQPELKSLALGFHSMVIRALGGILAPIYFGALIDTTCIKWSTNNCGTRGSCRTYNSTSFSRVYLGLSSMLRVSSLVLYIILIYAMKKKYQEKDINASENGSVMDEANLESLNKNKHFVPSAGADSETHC
# [6] = target: T6, Solute carrier organic anion transporter family member 1B2 (Rattus norvegicus, UniProt Q9QZX8); test: as §2; type: functional, cell-based, Oocyte
# T6 sequence (Q9QZX8 whole entry): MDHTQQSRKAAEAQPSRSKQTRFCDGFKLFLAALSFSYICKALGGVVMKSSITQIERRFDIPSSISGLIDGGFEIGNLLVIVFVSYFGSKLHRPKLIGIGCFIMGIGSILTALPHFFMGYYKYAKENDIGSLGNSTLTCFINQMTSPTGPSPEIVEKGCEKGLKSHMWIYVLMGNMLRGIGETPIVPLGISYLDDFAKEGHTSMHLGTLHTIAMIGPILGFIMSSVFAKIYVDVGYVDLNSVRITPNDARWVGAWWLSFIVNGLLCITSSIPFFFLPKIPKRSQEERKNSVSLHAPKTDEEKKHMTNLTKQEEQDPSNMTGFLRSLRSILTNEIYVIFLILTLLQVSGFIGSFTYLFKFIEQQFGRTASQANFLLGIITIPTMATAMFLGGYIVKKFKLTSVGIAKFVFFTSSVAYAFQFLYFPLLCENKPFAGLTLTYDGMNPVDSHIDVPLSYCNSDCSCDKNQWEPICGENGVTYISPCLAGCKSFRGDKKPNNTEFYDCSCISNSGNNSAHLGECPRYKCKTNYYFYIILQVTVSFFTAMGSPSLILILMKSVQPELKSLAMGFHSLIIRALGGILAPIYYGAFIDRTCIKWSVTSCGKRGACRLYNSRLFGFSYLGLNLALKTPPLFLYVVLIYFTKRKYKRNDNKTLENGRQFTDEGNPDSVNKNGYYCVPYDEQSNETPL
# [7] = target: T7, Solute carrier organic anion transporter family member 1A4 (OATP1A4) (Rattus norvegicus, UniProt O35913); test: as §1; type: functional, cell-based, Oocyte; parameters: scale not given: the % may be the effect or the level left; conditions: Xenopus laevis oocytes expressing OATP1A4, probe E1S (0.05 uM), read-out: Activity
# T7 sequence (O35913 whole entry): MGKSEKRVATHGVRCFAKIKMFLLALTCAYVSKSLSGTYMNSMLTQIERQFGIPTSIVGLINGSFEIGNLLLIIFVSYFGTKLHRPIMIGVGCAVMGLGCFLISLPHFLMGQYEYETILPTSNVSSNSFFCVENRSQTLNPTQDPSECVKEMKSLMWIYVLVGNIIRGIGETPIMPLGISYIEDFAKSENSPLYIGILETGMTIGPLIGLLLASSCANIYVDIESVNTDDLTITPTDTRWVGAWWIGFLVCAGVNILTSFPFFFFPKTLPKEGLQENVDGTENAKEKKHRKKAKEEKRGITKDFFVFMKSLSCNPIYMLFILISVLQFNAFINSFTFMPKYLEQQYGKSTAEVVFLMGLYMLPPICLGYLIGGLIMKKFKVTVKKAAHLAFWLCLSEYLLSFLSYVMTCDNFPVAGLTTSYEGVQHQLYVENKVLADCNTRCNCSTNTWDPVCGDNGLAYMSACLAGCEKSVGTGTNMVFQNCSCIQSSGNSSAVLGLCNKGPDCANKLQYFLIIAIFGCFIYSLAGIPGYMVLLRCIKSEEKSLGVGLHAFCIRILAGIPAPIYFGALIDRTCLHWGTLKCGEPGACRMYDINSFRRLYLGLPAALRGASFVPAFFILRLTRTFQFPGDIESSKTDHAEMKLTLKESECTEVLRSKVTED
# [8] = target: T8, Solute carrier organic anion transporter family member 1A5 (OATP1A5) (Rattus norvegicus, UniProt O88397); test: as §1; type: functional, cell-based, Oocyte; parameters: scale not given: the % may be the effect or the level left; conditions: Xenopus laevis oocytes expressing OATP1A5, probe E1S (0.05 uM), read-out: Activity
# T8 sequence (O88397 whole entry): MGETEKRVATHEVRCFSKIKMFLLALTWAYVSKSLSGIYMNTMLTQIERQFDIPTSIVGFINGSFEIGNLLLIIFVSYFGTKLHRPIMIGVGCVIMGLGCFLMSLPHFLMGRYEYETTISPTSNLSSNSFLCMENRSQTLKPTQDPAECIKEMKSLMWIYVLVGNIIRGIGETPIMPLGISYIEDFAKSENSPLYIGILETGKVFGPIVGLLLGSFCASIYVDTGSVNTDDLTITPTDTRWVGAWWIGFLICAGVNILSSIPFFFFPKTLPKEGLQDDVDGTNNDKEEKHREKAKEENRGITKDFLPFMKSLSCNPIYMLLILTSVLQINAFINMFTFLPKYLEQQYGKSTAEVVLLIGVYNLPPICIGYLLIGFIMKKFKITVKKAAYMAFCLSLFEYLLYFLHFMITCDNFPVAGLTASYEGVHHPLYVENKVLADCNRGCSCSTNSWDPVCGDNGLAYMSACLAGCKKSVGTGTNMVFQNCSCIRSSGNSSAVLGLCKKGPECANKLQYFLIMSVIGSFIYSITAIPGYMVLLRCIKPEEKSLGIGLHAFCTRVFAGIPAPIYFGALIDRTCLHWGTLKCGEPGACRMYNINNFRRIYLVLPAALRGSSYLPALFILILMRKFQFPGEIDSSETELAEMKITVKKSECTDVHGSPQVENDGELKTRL
# [9] = target: T9, Solute carrier organic anion transporter family member 1B3 (OATP1B3) (Homo sapiens, UniProt Q9NPD5); test: as §1; type: functional, cell-based, Oocyte; parameters: scale not given: the % may be the effect or the level left; conditions: Xenopus laevis oocytes expressing OATP1B3, probe E1S (0.05 uM), read-out: Activity
# T9 sequence (Q9NPD5 whole entry): T1 sequence (Q9NPD5 whole entry)
smiles,measurement,setting,value
CC1(C)[C@@H](O[C@H]2O[C@H](C(=O)O)[C@@H](O)[C@H](O)[C@H]2O[C@@H]2O[C@H](C(=O)O)[C@@H](O)[C@H](O)[C@H]2O)CC[C@]2(C)[C@H]3C(=O)C=C4[C@@H]5C[C@@](C)(C(=O)O)CC[C@]5(C)CC[C@@]4(C)[C@]3(C)CC[C@@H]12 [GLYCYRRHIZIN],Ki,[1],12.5 µM
same,Activity,[2],is not an inhibitor [-]
same,Activity,[3],52%
same,Activity,[4],is not an inhibitor [-]
same,Ki,[5],15.9 µM
same,Ki,[6],6.1 µM
same,activity at 100 µM,[7],47%
same,activity at 100 µM,[8],51%
same,activity at 100 µM,[9],0%
